Measurements as given in patent publication US12173002B2, “PRMT5 inhibitors and methods of use” (SHANGHAI APEIRON THERAPEUTICS COMPANY LIMITED, priority 2022, dated 2024).

Legend:
[1] = Mouse pharmacokinetic experiment; type: in vivo; details: male, ICR mice, plasma
Procedure: II. Mouse Pharmacokinetic Experiment 1. Test Compounds
(§1) The compounds used in this experiment are specific embodiments of the present invention, with reference to compound AMG473 as an example from Amgen's patent WO 2022/169948A1, identified as example 473.
ICR male mice, N=3/group; sourced from Zhejiang Vital River Laboratory Animal Technology Co., Ltd.
3. Drug Preparation and Administration
(§2) Single oral (PO) administration to ICR mice: Compounds were dissolved in dimethyl sulfoxide, added to polyethylene glycol 400 and sterile water, and then adjusted to a clear solution with a small amount of 1 mol/L hydrochloric acid. After overnight fasting, the mice were orally gavaged with a dose of 10 mg/kg.
as §2, with “intravenous (IV)” for “oral (PO)”, “received tail vein injections” for “were orally gavaged”, “3” for “10”
Approximately 30 μL/time point blood samples were collected via the tail vein. Potassium ethylenediaminetetraacetate was used as an anticoagulant, and samples were centrifuged at 4000 g/min for 5 minutes at 4° C. within 1 hour. Blood sampling time points were 0.0833 (IV), 0.25, 0.5, 1, 2, 4, 6, 8, 24 hours. Samples were stored in a −20° C. freezer.
Plasma samples (30 μL, 10 μL sample+20 μL blank plasma) were mixed with 200 μL ice-cold acetonitrile containing internal standards. After vortexing for 30 seconds, samples were centrifuged at 4000 g/min for 20 minutes. One hundred microliters of the supernatant were transferred to a 96-well plate, followed by the addition of 200 μL ultrapure water. After vortexing for 30 seconds, 5 μL or 10 μL were injected into LC-MS/MS for analysis.

hERG ion channel = hERG ion channel (Homo sapiens, UniProt Q12809); assay: hERG ion channel inhibition experiment (manual patch clamp, HEK293 cells); type: cell-based; details: HEK293 cells stably expressing hERG, whole-cell patch clamp, n=2
Procedure: III. hERG Ion Channel Inhibition Experiment
as §1
2. Cell Line and Cell Culture
Stably expressing hERG ion channel HEK293 cell line (Catalog: K1236) was purchased from Invitrogen. This cell line was cultured in a medium containing 85% DMEM, 10% dialyzed fetal bovine serum, 0.1 mM non-essential amino acid solution, 100 U/mL penicillin-streptomycin solution, 25 mM HEPES, 5 μg/mL blasticidin, and 400 μg/mL geneticin. When the cell density reached 40%˜80% of the culture dish area, digestion was performed using trypsin, and cells were passaged three times per week. Before the experiment, cells were cultured at a density of 5×10′ in 3.5 cm culture dishes, induced with […] Doxycycline for 48 hours. Subsequently, cells were digested and seeded onto slides for subsequent manual patch clamp experiments.)
3. Experimental Procedure
• 1) Place glass slides containing HEK293 cells in the perfusion chamber of the micro-manipulation station. • 2) Under an Olympus IX71 or IX73 inverted microscope, position suitable cells in the central field of view using a ×10 objective. Locate the tip of the glass electrode in the central field. Use the micromanipulator to lower the electrode while adjusting the coarse focus spiral to slowly approach the cell. • 3) When approaching the cell rapidly, switch to a ×40 objective for observation. Fine-tune the electrode approach using the micromanipulator to gradually reach the cell's surface. • 4) Apply negative pressure to establish 1GQ seal between the electrode tip and the cell membrane. • 5) Compensate for the transient capacitance current Cfast under voltage clamp mode. Then, repeat the brief negative pressure application for membrane rupture, ultimately reaching the whole-cell recording mode. • 6) Under voltage clamp at −60 mV, compensate for slow capacitance current Cslow, cell membrane capacitance (Cm), and input membrane resistance (Ra). • 7) Once the cell is stable, change the clamping voltage to −90 mV, set the sampling frequency to 20 kHz, and the filtering frequency to 10 kHz. Leak current detection conditions involve changing the clamping voltage to −80 mV for a duration of 500 ms. • 8) The hERG current testing method is as follows: Apply a 4.8-second depolarization command voltage to depolarize the membrane potential from −80 mV to +30 mV, then instantly apply a 5.2-second repolarization voltage to reduce the membrane potential to −50 mV to remove channel inactivation, allowing observation of the hERG tail current. The peak of the tail current represents the size of the hERG current. • 9) The hERG current […] is continuously recorded for 120 seconds before administration to assess the stability of the tested cells in producing hERG currents. Only stable cells within an acceptable range are eligible for subsequent compound testing. • 10) Testing the inhibitory effect of the test compound on hERG current: First, determine the baseline of hERG current obtained in extracellular fluid containing 0.1% DMSO. After maintaining stable hERG current for at least 5 minutes, sequentially perfuse the solution containing the test compound around the cells from low to high concentrations. After each perfusion, wait for about 5 minutes to allow the compound to act on the cells and simultaneously record hERG currents. Record the last 5 hERG current values after the recorded current stabilizes, and take their average as the final current value at a specific concentration. […] Meanwhile, positive compound dofetilide is synchronously detected before and after the end of the test drug experiment using the same patch clamp system to ensure the reliability and sensitivity of the entire detection system. The above test steps will be repeated on two separate test cells (n=2). 4. Data Analysis […]

[2] = tested on: HCT-116 MTAP(−/−) deficient cells; assay: Inhibitory activity on proliferation of HCT-116 MTAP(−/−) deficient cells (Cell-Titer Glo, 8 days); type: cell-based; details: Homo sapiens, HCT-116, 192 h, 8 days incubation
Procedure: Test 1: Compound's inhibitory activity on proliferation of HCT-116 MTAP(−/−) deficient cells. P Materials and Cells: HCT-116 MTAP(−/−) deficient cells obtained from Kyinno Bio (China); RPMI-1640 medium, fetal bovine serum, and penicillin-streptomycin purchased from Thermo Fisher Scientific (America); 384-well plates from PerkinElmer (America); Cell-Titer Glo assay kit from Promega (America).
Cell Culture: HCT116 MTAP(−/−) deficient cells were cultured in RPMI 1640 medium containing 10% fetal bovine serum and 1% penicillin-streptomycin at 37° C., 5% CO2. Only cells in logarithmic growth phase were used for experiments.
(§3) Cell Proliferation Inhibition Assay: The compound's inhibitory activity on HCT-116 MTAP(−/−) deficient cells was assessed using the Cell-Titer Glo assay kit. Adjusting cell concentration, 40 μL was seeded into a 384-well plate and cultured overnight at 37° C., 5% CO2. Each well received 40 nL of the compound, achieving concentrations from 0 to 10,000 nM (starting concentration 10,000 nM, 3-fold dilution, 10 points), with 0.1% DMSO. The cell plate was incubated for 8 days at 37° C., 5% CO2. Cell-Titer Glo reagent (40 μL) was added to measure cell viability.

[3] = tested on: HCT-116 MTAP wild-type cells; assay: Inhibitory activity on proliferation of HCT-116 MTAP wild-type cells (Cell-Titer Glo, 8 days); type: cell-based; details: Homo sapiens, HCT-116, 192 h, 8 days incubation
Procedure: Test 2: Compound's inhibitory activity on proliferation of HCT-116 MTAP wild-type cells.
Materials and Cells: HCT-116 MTAP wild-type cells obtained from Kyinno Bio (China); RPMI-1640 medium, fetal bovine serum, and penicillin-streptomycin purchased from Thermo Fisher Scientific (America); 384-well plates from PerkinElmer (America); Cell-Titer Glo assay kit from Promega (America).
Cell Culture: HCT116 MTAP wild-type cells were cultured in RPMI 1640 medium containing 10% fetal bovine serum and 1% penicillin-streptomycin at 37° C., 5% CO2. Only cells in logarithmic growth phase were used for experiments.
as §3, with “MTAP wild-type” for “MTAP(−/−) deficient”

Sequence of hERG ion channel (Q12809 whole entry): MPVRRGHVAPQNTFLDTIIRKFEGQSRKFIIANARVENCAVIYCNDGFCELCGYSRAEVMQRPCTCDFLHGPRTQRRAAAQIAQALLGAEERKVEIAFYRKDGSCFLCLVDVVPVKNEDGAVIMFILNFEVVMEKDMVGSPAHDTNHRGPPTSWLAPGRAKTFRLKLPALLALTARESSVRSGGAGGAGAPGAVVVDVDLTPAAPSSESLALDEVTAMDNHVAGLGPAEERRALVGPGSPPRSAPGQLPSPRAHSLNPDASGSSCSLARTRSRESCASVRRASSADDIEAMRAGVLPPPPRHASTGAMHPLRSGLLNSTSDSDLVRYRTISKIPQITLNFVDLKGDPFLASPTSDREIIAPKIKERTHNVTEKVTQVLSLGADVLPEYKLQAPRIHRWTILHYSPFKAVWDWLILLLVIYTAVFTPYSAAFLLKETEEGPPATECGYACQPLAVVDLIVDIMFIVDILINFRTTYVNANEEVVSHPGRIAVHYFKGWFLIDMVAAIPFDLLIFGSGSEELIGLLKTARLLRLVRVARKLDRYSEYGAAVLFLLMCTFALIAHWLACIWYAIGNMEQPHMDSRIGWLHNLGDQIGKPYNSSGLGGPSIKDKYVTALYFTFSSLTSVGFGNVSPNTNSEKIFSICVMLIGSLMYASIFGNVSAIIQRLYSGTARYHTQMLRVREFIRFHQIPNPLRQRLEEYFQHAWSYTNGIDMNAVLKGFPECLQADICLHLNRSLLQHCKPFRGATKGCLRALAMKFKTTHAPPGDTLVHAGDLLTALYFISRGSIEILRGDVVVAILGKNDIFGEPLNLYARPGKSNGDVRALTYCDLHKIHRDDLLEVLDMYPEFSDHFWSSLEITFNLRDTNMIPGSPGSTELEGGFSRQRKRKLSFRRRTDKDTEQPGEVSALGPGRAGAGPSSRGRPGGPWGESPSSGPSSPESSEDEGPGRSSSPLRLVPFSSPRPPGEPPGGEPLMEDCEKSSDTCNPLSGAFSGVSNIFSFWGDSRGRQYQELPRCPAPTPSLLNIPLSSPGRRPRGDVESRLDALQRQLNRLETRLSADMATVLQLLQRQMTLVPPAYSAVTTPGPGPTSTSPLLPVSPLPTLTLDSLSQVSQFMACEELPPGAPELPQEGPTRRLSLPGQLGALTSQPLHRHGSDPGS

Row | SMILES | AUC(0-t) ([1]; IV 3 mg/kg) | AUC(0-t) ([1]; PO 10 mg/kg) | half-life ([1]; IV 3 mg/kg) | half-life ([1]; PO 10 mg/kg) | IC50 (hERG ion channel) | IC50 [2] | IC50 [3] | bioavailability ([1]; PO 10 mg/kg vs IV 3 mg/kg, read-out: Bioavailability F)
1 | [2H]C([2H])([2H])N(C(=O)c1cc2c(cc1F)nc(N)c1cncn12)[C@@H]1COc2cc(C(F)(F)F)ccc21 [Example 41, (S)-4-amino-7-fluoro-N-(methyl-d3)-N-(6-(trifluoromethyl)-2,3-dihydrobenzofuran-3-yl)imidazo[1,5-a] quinoxaline-8-carboxamide] | 5420 ng·h/mL | 46300 ng·h/mL | 4.3 h | 4.12 h | 8160 nM |  |  | 
2 | CN(C(=O)c1cc2c(cn1)nc(N)c1cncn12)[C@@H]1COc2cc(C(F)(F)F)ccc21 [Example 4, (S)-4-amino-N-methyl-N-(6-(trifluoromethyl)-2,3-dihydrobenzofuran-3-yl)imidazo[1,5-a] pyrido[3,4-e] pyrazine-8-carboxamide] | 8090 ng·h/mL | 21000 ng·h/mL | 4.06 h | 2.67 h | 5290 nM |  |  | 
3 | CN(C(=O)c1ccc2nc(N)c3cncn3c2c1)[C@@H]1COc2cc(C(F)(F)C(F)(F)F)ccc21 [Example 130, (S)-4-amino-N-methyl-N-(6-(perfluoroethyl)-2,3-dihydrobenzofuran-3-yl)imidazo[1,5-a] quinoxaline-8-carboxamide] | 10800 ng·h/mL | 28300 ng·h/mL | 4.5 h | 3.34 h | 1360 nM |  |  | 
4 | [2H]C([2H])([2H])N(C(=O)c1ccc2nc(N)c3cncn3c2c1)[C@@H]1COc2cc(C(F)(F)F)ccc21 [Example 16, (S)-4-amino-N-(methyl-d3)-N-(6-(trifluoromethyl)-2,3-dihydrobenzofuran-3-yl)imidazo[1,5-a] quinoxaline-8-carboxamide] | 9710 ng·h/mL | 42500 ng·h/mL | 3.65 h | 3.31 h | 2300 nM |  |  | 
5 | CN(C(=O)c1ccc2nc(N)c3cncn3c2c1)[C@@H]1COc2cc(C(F)(F)F)ccc21 [Example 107, (S)-4-amino-N-methyl-N-(6-(trifluoromethyl)-2,3-dihydrobenzofuran-3-yl)imidazo[1,5-a] quinoxaline-8-carboxamide] | 11200 ng·h/mL | 44100 ng·h/mL | 4.53 h | 4.56 h | 4500 nM |  |  | 
6 | CN(C(=O)c1ccc2nc(N)c3cncn3c2c1)[C@@H]1COc2cc(S(F)(F)(F)(F)F)ccc21 (single isomer, unassigned) [Example 104] | 10500 ng·h/mL | 26500 ng·h/mL | 6.1 h | 5.02 h | 1510 nM | 4.6 nM | 591 nM | 74%
